# Where “and” joins values, the source holds several entries; their conditions need not be identical. Equal values may be shown once.
# What was measured:
# [1] = system: LNCaP cells; assay: In vitro cellular uptake and internalization; assay type: cell-based, human; settings: for Cell surface fraction / Internalised fraction / Total uptake: % of total applied activity
# Method: The cellular uptake of [^61Cu]Cu-NODAGA-PSMA I&T was studied in vitro using intact LNCaP cells seeded overnight in 6-well plates. On the day of the experiment, the cells were washed and incubated with [^61Cu]Cu-NODAGA-PSMA I&T at different time points, either alone or in the presence of 2-PMPA (10 μM) as a blocking agent, to distinguish between specific and non-specific uptake. At each investigated time point, the medium containing the unbound (free) [^61Cu]Cu-NODAGA-PSMA I&T was removed, followed by two washing steps with ice-cold phosphate-buffered saline. The cells were then treated for 2×5 min with ice-cold glycine solution (0.05 M, pH 2.8) to detach the cell surface-bound tracer (acid released). Afterwards, the cells containing the internalized [^61Cu]Cu-NODAGA-PSMA I&T were detached with 1 M sodium hydroxide at 37° C. and collected for measurement. The specific cell surface-bound and internalized tracer was expressed as a percentage of the total applied activity after subtracting the non-specific values. The results are presented in Table 23 as a mean value (n=3±standard deviation).
# [2] = system: LNCaP cells; assay: In vitro efflux rate; assay type: cell-based, human; settings: for Cell-associated fraction, With competitor: 100-fold excess DOTAGA-PSMA I&T
# Method: Efflux-rate assays were performed on 6-well plates pre-treated with poly-L-lysine to promote adhesion. The plated cells were incubated with [^61Cu]Cu-NODAGA-PSMA I&T (100 μL, 0.5 nM) at 37° C. For non-specific uptake measurement, 100 μL of 2-PMPA (10 μM) was added to some wells. After 1 h, the cell-released fraction was collected by removing the medium and washing it twice with PBS. Then, the cells were incubated at 37° C. in a fresh medium for up to 180 min. At each time point, the medium was removed and replaced by fresh pre-warmed (37° C.) medium. At the end of the experiment, the cells were detached with 1 M sodium hydroxide and collected to determine the remaining cell-binding [^61Cu]Cu-NODAGA-PSMA I&T. The different fractions were quantified using a γ-counter (Cobra II, Packard A Canberra) and represented as a percentage of the applied radioactivity.
# The experiment was also performed in the presence of a competitor (100-fold excess DOTAGA-PSMA I&T) to obtain a “rebinding free” system. The presence of the competitor prevented any rebinding of [^61Cu]Cu-NODAGA-PSMA I&T that dissociates faster. The values were calculated as a percentage of the cell-associated fraction (surface-bound and internalized fraction), subtracting the non-specific uptake (measured in the presence of 10 μM 2-PMPA).
# [3] = Dosimetry calculations (OLINDA/EXM 1.0, extrapolated human dose)
# Source text: The data from the pharmacokinetic studies (Table 26) was decay-corrected using the half-life of ^61Cu to extrapolate the human dose. Since there were no measurements of the radioactivity accumulation in red marrow, this was estimated assuming a linear relationship between the blood and the red marrow residence times. The proportionality factor used was the ratio between the red marrow mass and human blood mass. The residence time (RT) for the stomach was approximated to be equal to the RT of the stomach wall since the animals were subjected to fasting before the biodistribution experiments. The heart was emptied from blood before measurements, and it was assumed that the total measured heart uptake was associated with the heart wall.
# OLINDA/EXM 1.0 was used to integrate the fitted time-activity curves and to estimate the organ and effective doses using standard human whole-body adult female and male phantom models. Since the salivary glands are PSMA-positive and the organ is not included in the phantom, the dose absorbed was calculated separately, assuming that the weight of the human salivary gland is 30 g.
compound,measurement,setting,value
O=C([O-])CN1CCN(CC(=O)[O-])CCN([C@H](CCC(=O)N[C@H](Cc2ccc(O)c(I)c2)C(=O)N[C@H](Cc2ccccc2)C(=O)N[C@H](CCCCNC(=O)CCCCCCC(=O)NCCCC[C@H](NC(=O)N[C@@H](CCC(=O)O)C(=O)O)C(=O)O)C(=O)O)C(=O)O)CC1.[61Cu+2] [[^61Cu]Cu-NODAGA-PSMA I&T],time over which the radiotracer was continuously internalized,[1],up to 120 minutes
same,Cell surface fraction,[1]; 5 min,4.3 ± 0.7%
same,Internalised fraction,[1]; 5 min,1.2 ± 0.2%
same,Total uptake,[1]; 5 min,5.5 ± 0.9%
same,Cell surface fraction,[1]; 15 min,8.2 ± 1.0%
same,Internalised fraction,[1]; 15 min,3.9 ± 0.4%
same,Total uptake,[1]; 15 min,12.1 ± 1.4%
same,Cell surface fraction,[1]; 30 min,10.7 ± 1.0%
same,Internalised fraction,[1]; 30 min,7.0 ± 1.1%
same,Total uptake,[1]; 30 min,17.7 ± 2.1%
same,Cell surface fraction,[1]; 60 min,10.8 ± 1.8%
same,Internalised fraction,[1]; 60 min,11.7 ± 1.6%
same,Total uptake,[1]; 60 min,22.5 ± 3.4%
same,Cell surface fraction,[1]; 120 min,10.2 ± 1.8%
same,Internalised fraction,[1]; 120 min,17.6 ± 2.8%
same,Total uptake,[1]; 120 min,27.8 ± 4.6%
same,time of highest accumulation on the cell membrane,[1]; saturation of binding sites,≤ 30 min
same,"Cell-associated fraction, Without competitor",[2]; 10 min,83.8 ± 0.7%
same,"Cell-associated fraction, With competitor",[2]; 10 min,67.9 ± 1.1%
same,"Cell-associated fraction, Without competitor",[2]; 20 min,73.5 ± 0.8%
same,"Cell-associated fraction, With competitor",[2]; 20 min,54.4 ± 0.7%
same,"Cell-associated fraction, Without competitor",[2]; 30 min,65.2 ± 1.4%
same,"Cell-associated fraction, With competitor",[2]; 30 min,46.5 ± 0.4%
same,"Cell-associated fraction, Without competitor",[2]; 45 min,57.0 ± 2.8%
same,"Cell-associated fraction, With competitor",[2]; 45 min,39.9 ± 0.6%
same,"Cell-associated fraction, Without competitor",[2]; 60 min,51.3 ± 3.3%
same,"Cell-associated fraction, With competitor",[2]; 60 min,35.9 ± 0.9%
same,"Cell-associated fraction, Without competitor",[2]; 90 min,45.0 ± 3.3%
same,"Cell-associated fraction, With competitor",[2]; 90 min,29.9 ± 1.1%
same,"Cell-associated fraction, Without competitor",[2]; 120 min,40.0 ± 3.5%
same,"Cell-associated fraction, With competitor",[2]; 120 min,25.0 ± 0.5%
same,"Cell-associated fraction, Without competitor",[2]; 150 min,35.4 ± 3.1%
same,"Cell-associated fraction, With competitor",[2]; 150 min,20.9 ± 0.4%
same,"Cell-associated fraction, Without competitor",[2]; 180 min,31.5 ± 2.5%
same,"Cell-associated fraction, With competitor",[2]; 180 min,17.5 ± 0.5%
same,Effective Dose,[3]; Female,0.0095 mSv/MBq and 9.54E−03 mSv/MBq
same,"Total absorbed dose, Adrenals",[3]; Female,9.86E−02 mGy/MBq
same,"Total absorbed dose, Brain",[3]; Female,5.59E−05 mGy/MBq
same,"Total absorbed dose, Breasts",[3]; Female,1.23E−03 mGy/MBq
same,"Total absorbed dose, Gallbladder Wall",[3]; Female,1.37E−02 mGy/MBq
same,"Total absorbed dose, Heart Wall",[3]; Female,5.03E−03 mGy/MBq
same,"Total absorbed dose, Kidneys",[3]; Female,1.00E+00 mGy/MBq
same,"Total absorbed dose, LLI Wall",[3]; Female,3.24E−03 mGy/MBq
same,"Total absorbed dose, Liver",[3]; Female,1.83E−02 mGy/MBq
same,"Total absorbed dose, Lungs",[3]; Female,4.86E−03 mGy/MBq
same,"Total absorbed dose, Muscle",[3]; Female,4.03E−03 mGy/MBq
same,"Total absorbed dose, Osteogenic Cells",[3]; Female,3.93E−03 mGy/MBq
same,"Total absorbed dose, Ovaries",[3]; Female,4.76E−03 mGy/MBq
same,"Total absorbed dose, Pancreas",[3]; Female,3.18E−02 mGy/MBq
same,"Total absorbed dose, Red Marrow",[3]; Female,6.94E−03 mGy/MBq
same,"Total absorbed dose, Skin",[3]; Female,1.82E−03 mGy/MBq
same,"Total absorbed dose, Small Intestine",[3]; Female,2.78E−02 mGy/MBq
same,"Total absorbed dose, Spleen",[3]; Female,5.65E−02 mGy/MBq
same,"Total absorbed dose, Stomach Wall",[3]; Female,1.08E−02 mGy/MBq
same,"Total absorbed dose, Thymus",[3]; Female,1.11E−03 mGy/MBq
same,"Total absorbed dose, Thyroid",[3]; Female,2.72E−04 mGy/MBq
same,"Total absorbed dose, Total Body",[3]; Female,9.46E−03 mGy/MBq
same,"Total absorbed dose, ULI Wall",[3]; Female,9.78E−03 mGy/MBq
same,"Total absorbed dose, Urinary Bladder Wall",[3]; Female,1.60E−03 mGy/MBq
same,"Total absorbed dose, Uterus",[3]; Female,3.94E−03 mGy/MBq
same,Effective Dose,[3]; Male,0.0142 mSv/MBq and 1.42E−02 mSv/MBq
same,"Total absorbed dose, Adrenals",[3]; Male,8.39E−02 mGy/MBq
same,"Total absorbed dose, Brain",[3]; Male,6.18E−05 mGy/MBq
same,"Total absorbed dose, Gallbladder Wall",[3]; Male,2.30E−02 mGy/MBq
same,"Total absorbed dose, Heart Wall",[3]; Male,6.94E−03 mGy/MBq
same,"Total absorbed dose, Kidneys",[3]; Male,1.74E+00 mGy/MBq
same,"Total absorbed dose, LLI Wall",[3]; Male,4.64E−03 mGy/MBq
same,"Total absorbed dose, Liver",[3]; Male,2.51E−02 mGy/MBq
same,"Total absorbed dose, Lungs",[3]; Male,6.11E−03 mGy/MBq
same,"Total absorbed dose, Muscle",[3]; Male,6.00E−03 mGy/MBq
same,"Total absorbed dose, Osteogenic Cells",[3]; Male,5.31E−03 mGy/MBq
same,"Total absorbed dose, Pancreas",[3]; Male,4.83E−02 mGy/MBq
same,"Total absorbed dose, Red Marrow",[3]; Male,1.11E−02 mGy/MBq
same,"Total absorbed dose, Skin",[3]; Male,2.90E−03 mGy/MBq
same,"Total absorbed dose, Small Intestine",[3]; Male,3.79E−02 mGy/MBq
same,"Total absorbed dose, Spleen",[3]; Male,7.37E−02 mGy/MBq
same,"Total absorbed dose, Stomach Wall",[3]; Male,1.71E−02 mGy/MBq
same,"Total absorbed dose, Testes",[3]; Male,5.39E−04 mGy/MBq
same,"Total absorbed dose, Thymus",[3]; Male,1.67E−03 mGy/MBq
same,"Total absorbed dose, Thyroid",[3]; Male,4.99E−04 mGy/MBq
same,"Total absorbed dose, Total Body",[3]; Male,1.38E−02 mGy/MBq
same,"Total absorbed dose, ULI Wall",[3]; Male,1.43E−02 mGy/MBq
same,"Total absorbed dose, Urinary Bladder Wall",[3]; Male,2.06E−03 mGy/MBq
same,absorbed dose in the kidneys,[3]; after injecting 100-150 MBq,0.17-0.26 Gy

# From patent US20260241046A1, “PROSTATE-SPECIFIC MEMBRANE ANTIGEN RECEPTOR-TARGETING RADIOPHARMACEUTICALS AND USES THEREOF” (Nuclidium AG, priority 2024, published 2026)
